Test results as given in patent publication EP0840727B1, “3-HYDROXY-2(1H)-[…] AGENTS” (priority 1995, dated 1997).
Like-named read-outs stand apart in the source and are kept apart here. Marks after values point to notes of the source that are not given here.

Key:
[1] = ligand 30 µmol kg^-1 ip at 1 h after iv ^238Pu(IV) citrate, kill at 24 h, reported previously, cited from earlier work; for percent of injected ^238Pu at 24 h, excreta: feces and GI contents / percent of injected ^238Pu at 24 h, excreta: urine 0-24 h / percent of injected ^238Pu at 24 h, tissues: kidneys: pooled samples
[2] = Promoting excretion of 238Pu(IV) in mice by injected ligands; assay type: in vivo; settings: for Pu removal (in words): injected ligands, 30 µmol/kg intraperitoneally one hour after ^238Pu(IV); for percent of injected ^238Pu ± SD at 24 h, tissues: liver / percent of injected ^238Pu ± SD at 24 h, tissues: skeleton / percent of injected ^238Pu ± SD at 24 h, tissues: soft tissue / percent of injected ^238Pu ± SD at 24 h, whole body / percent of injected ^238Pu at 24 h, excreta: feces and GI contents / percent of injected ^238Pu at 24 h, excreta: urine 0-24 h / percent of injected ^238Pu at 24 h, tissues: kidneys: ligand 30 µmol kg^-1 ip at 1 h after iv ^238Pu(IV) citrate, kill at 24 h; for percent of injected ^238Pu at 24 h, excreta: feces and GI contents / percent of injected ^238Pu at 24 h, excreta: urine 0-24 h / percent of injected ^238Pu at 24 h, tissues: kidneys: pooled samples
Excerpt: Animal studies were completed using methods detailed in Radiation Protection Dosimetry, in press, P. W. Durbin et al., "In Vivo Chelation of Am(III), Pu(IV), Np(V) and U(VI) in Mice by TREN-(Me-3,2-HOPO)"; Radiation Protection Dosimetry, 17, No. 1, 1989, p. 351, P. W. Durbin et al., "Removal of ^238Pu(IV) from Mice by Polycatechoylate, -Hydroxamate or -Hydroxypyridinonate Ligands"; Radiation Research, 99, 1984, p. 85, P. W. Durbin et al., "Specific Sequestering Agents for the Actinides ..."; Radiation Research, 99, 1984, p. 106, P. W. Durbin et al., "Removal of Pu and Am from Beagles and Mice ..."; Radiation Research, 81, 1980, p. 170, R. D. Lloyd et al., and P. W. Durbin et al., "Specific Sequestering Agents for the Actinides ...". The foregoing articles are hereby incorporated by reference.
Radionuclides used in the animal studies came from a variety of sources. However, they can be purchased commercially. The ^238Pu(IV) citrate and ^241Am(III) citrate solutions were prepared for animal injection by 8- to 10-fold dilution with 0.14M NaCl (pH 4) of concentrated stock solutions (0.08M sodium citrate buffer) that had been held in frozen storage at Lawrence Berkeley Laboratory (hereinafter LBL) for several years. [The ^238Pu(IV) was originally obtained from D. R. Atherton at the University of Utah Radiobiology Laboratory, Salt Lake City. The ^241Am(III) solution had been obtained many years earlier from the LBL Actinide Chemistry group.]
The novel chelating agents of the present invention and comparative compounds were tested for their effectiveness in promoting excretion ^238Pu(IV) in nice by injected ligands as follows. Mice, in groups of five, each received an intravenous injection of 1850 Bq ^238Pu(IV) in 0.2 mL of citrate buffer. One hour later, 30 µmol/kg of ligand was injected intraperitoneally in 0.5 mL of saline. The mice were killed 24 hours after the Pu injection, frozen, and dissected after partial thawing. The ^238Pu in skeleton, soft tissues, and separated excreta was determined by counting the ^234U L x-rays. Results of removal of ^238Pu(IV) from mice by injected ligands are summarized in Table 3, which also includes data for CaNa3-DTPA and other reference ligands and the Pu-injected controls. […] While the case of multidente 1,2-HOPO and catechoylamide chelating agents, octadentates are always better chelating agents than the corresponding hexadentates and tetradentates.

[3] = In vivo acute toxicity test of injected ligands in mice; settings: for toxicity (in words): even at the relatively high dosage of 2x500 µmol/kg in 8 hours
Description: The test of acute toxicity of novel and comparative ligands was carried out as follows. Groups of five mice were each given a single i.p. injection of […] of ligand and a day for 10 days or given two i.p. injections of […] in 8 hours. The ligand was dissolved in 0.5 to 1.0 ml of saline at pH 7 to 8. After a period of observation, the mice were killed; selected tissues were removed and fixed for histopathological examination; and unusual findings at autopsy were recorded. […]

[4] = protocol I, 100 µmol kg^-1 x 10 daily i.p., study length 11 d
[5] = protocol I, 100 µmol kg^-1 x 10 daily i.p., study length 21 d
[6] = protocol II, 500 µmol kg^-1 x 2 in 8 h, study length 11 d
[7] = protocol IA, 100 µmol kg^-1 x 2 daily, study length 3 d
[8] = protocol IA, 100 µmol kg^-1 x 2 daily, study length 11 d

Structure (SMILES) | percent of injected ^238Pu at 24 h, excreta: feces and GI contents [1] | percent of injected ^238Pu at 24 h, excreta: urine 0-24 h [1] | percent of injected ^238Pu ± SD at 24 h, tissues: liver [1] | percent of injected ^238Pu ± SD at 24 h, tissues: skeleton [1] | percent of injected ^238Pu ± SD at 24 h, tissues: soft tissue [1] | percent of injected ^238Pu ± SD at 24 h, whole body [1] | percent of injected ^238Pu at 24 h, tissues: kidneys [1] | Pu removal (in words) [2] | percent of injected ^238Pu ± SD at 24 h, tissues: liver [2] | percent of injected ^238Pu ± SD at 24 h, tissues: skeleton [2] | percent of injected ^238Pu ± SD at 24 h, tissues: soft tissue [2] | percent of injected ^238Pu ± SD at 24 h, whole body [2] | percent of injected ^238Pu at 24 h, excreta: feces and GI contents [2] | percent of injected ^238Pu at 24 h, excreta: urine 0-24 h [2] | percent of injected ^238Pu at 24 h, tissues: kidneys [2] | toxicity (in words) [3] | no. of survivors [3, 4] | percent control mean + SD: body weight [3, 4] [percent control] | percent control mean + SD: kidney weight [3, 4] [percent control] | percent control mean + SD: plasma urea N [3, 4] [percent control] | also measured
CC(=O)N(O)CCCCCNC(=O)CCC(=O)N(O)CCCCCNC(=O)CCC(=O)N(O)CCCCCNC(=O)c1cccc(=O)n1O [DFO-(1,2-HOPO)] | 46.7% of injected ^238Pu | 9.5% of injected ^238Pu | 5.1 ± 2.2^d percent of injected ^238Pu | 6.0 ± 0.5^d percent of injected ^238Pu | 2.3 ± 0.5^d percent of injected ^238Pu | 13 ± 2.9^d percent of injected ^238Pu |  |  |  |  |  |  |  |  |  |  |  |  |  |  | 
O=C(NCCCN(CCCCN(CCCNC(=O)c1cccc(=O)n1O)C(=O)c1cccc(=O)n1O)C(=O)c1cccc(=O)n1O)c1cccc(=O)n1O [3,4,3-LI(1,2-HOPO)] | 57% of injected ^238Pu | 23% of injected ^238Pu | 8.9 ± 1.7^d percent of injected ^238Pu | 7.5 ± 0.7^d percent of injected ^238Pu | 1.6 ± 0.6^d percent of injected ^238Pu | 18 ± 1.7^d percent of injected ^238Pu | 0.2% of injected ^238Pu |  |  |  |  |  |  |  |  |  |  |  |  |  | 
O=C(NCc1cc(CNC(=O)c2cccc(=O)n2O)cc(CNC(=O)c2cccc(=O)n2O)c1)c1cccc(=O)n1O [ME-(1,2-HOPO)] | 43% of injected ^238Pu | 9.6% of injected ^238Pu | 18 ± 6.3^d percent of injected ^238Pu | 17 ± 2.5% of injected ^238Pu | 10 ± 1.8% of injected ^238Pu | 47 ± 9.4% of injected ^238Pu | 1.8% of injected ^238Pu |  |  |  |  |  |  |  |  |  |  |  |  |  | 
Cn1ccc(C(=O)NCCCCCNC(=O)c2ccn(C)c(=O)c2O)c(O)c1=O [5-LI-Me-3,2-HOPO, 1,5-bis[(3-hydroxy-1-methyl-2-oxo-1,2-dihydropyridin-4-yl)carboxamido]pentane] |  |  |  |  |  |  |  | as effective or more effective than the hexadentate and octadentate chelating agents | 3.1 ± 0.8^d percent of injected ^238Pu | 10 ± 1.2% of injected ^238Pu | 1.9 ± 0.5% of injected ^238Pu | 16 ± 1.9^d percent of injected ^238Pu | 67.6% of injected ^238Pu | 17.5% of injected ^238Pu | 0.3% of injected ^238Pu | low toxicity | 5 | 102 ± 5 | 109 ± 14 | 89 ± 1 | no. of survivors [3, 5]: 5; percent control mean + SD: body weight [3, 5]: 102 ± 5 percent control; percent control mean + SD: kidney weight [3, 5]: 100 ± 4 percent control; percent control mean + SD: plasma urea N [3, 5]: 101 ± 2 percent control; no. of survivors [3, 6]: 5; percent control mean + SD: body weight [3, 6]: 99 ± 3 percent control; percent control mean + SD: kidney weight [3, 6]: 109 ± 9 percent control; percent control mean + SD: plasma urea N [3, 6]: 98 ± 18 percent control
Cn1ccc(C(=O)NCCCCCCNC(=O)c2ccn(C)c(=O)c2O)c(O)c1=O [6-LI-Me-3,2-HOPO, 1,6-bis[(3-hydroxy-1-methyl-2-oxo-1,2-dihydropyridin-4-yl)carboxamindo]hexane] |  |  |  |  |  |  |  |  | 6.5 ± 3.7^d percent of injected ^238Pu | 12 ± 1.8% of injected ^238Pu | 3.7 ± 1.8% of injected ^238Pu | 23 ± 4.9^d percent of injected ^238Pu | 62.9% of injected ^238Pu | 14.4% of injected ^238Pu | 0.5% of injected ^238Pu |  |  |  |  |  | no. of survivors [3, 7]: 5; percent control mean + SD: body weight [3, 7]: 83 ± 3 percent control; percent control mean + SD: kidney weight [3, 7]: 132 ± 11 percent control; percent control mean + SD: plasma urea N [3, 7]: 343 ± 140 percent control; no. of survivors [3, 8]: 3; percent control mean + SD: body weight [3, 8]: 101 ± 5 percent control; percent control mean + SD: kidney weight [3, 8]: 112 ± 13 percent control; percent control mean + SD: plasma urea N [3, 8]: 92 ± 6 percent control
Cn1ccc(C(=O)NCCOCCNC(=O)c2ccn(C)c(=O)c2O)c(O)c1=O [5-LI-O-Me-3,2-HOPO, 1,5-bis[(3-hydroxy-1-methyl-2-oxo-1,2-dihydropyridin-4-yl)carboxamino]-3-oxypentane] |  |  |  |  |  |  |  | as effective or more effective than the hexadentate and octadentate chelating agents | 2.1 ± 0.3^d percent of injected ^238Pu | 11 ± 1.6% of injected ^238Pu | 1.6 ± 0.2^d percent of injected ^238Pu | 15 ± 2.1^d percent of injected ^238Pu | 61.7% of injected ^238Pu | 23.5% of injected ^238Pu | 0.2% of injected ^238Pu | low toxicity | 5 | 103 ± 5 | 100 ± 19 | 83 ± 5 | no. of survivors [3, 5]: 5; percent control mean + SD: body weight [3, 5]: 101 ± 5 percent control; percent control mean + SD: kidney weight [3, 5]: 111 ± 5 percent control; percent control mean + SD: plasma urea N [3, 5]: 86 ± 18 percent control; no. of survivors [3, 6]: 10; percent control mean + SD: body weight [3, 6]: 100 ± 2 percent control; percent control mean + SD: kidney weight [3, 6]: 108 ± 10 percent control; percent control mean + SD: plasma urea N [3, 6]: 77 ± 10 percent control
